Results: patent US9725442B2, “Heterocyclic derivative having PGD2 receptor antagonist activity” (Shionogi & Co., Ltd., priority 2011, dated 2017)

Key:
[1] = BA test (oral absorbability); format: in vivo; conditions: rat, plasma; Rats, Oral administration 1 mg/kg
Procedure: An experimental material and a method for examining oral absorbability • (1) Animals used: rats or mice were used. • (2) Breeding condition: chow and sterilized tap water were allowed to be taken in freely. • (3) Setting of a dosage and grouping: a predetermined dosage was administered orally or intravenously. Groups were formed as shown below. (A dosage varied depending on each compound) Oral administration 1-30 mg/kg (n=2 to 3) Intravenous administration 0.5-10 mg/kg (n=2 to 3) • (4) Preparation of administered liquid: In oral administration, a solution or suspension was administered. […] In intravenous administration, administration from the caudal vein was conducted using a syringe with an injection needle. • (6) Evaluation item: Blood was chronologically collected, and then the concentration of a compound of the present invention blood plasma was measured using a LC/MS/MS. • (7) Statistical analysis: With regard to a shift in plasma concentration, the plasma concentration-time area under the curve (AUC) was calculated using a nonlinear least-squares program WinNonlin®. Bioavailability (BA) was calculated from the AUCs of the oral administration group and the intravenous administration group, respectively. […]

[2] = target: human ether-a-go-go related gene (hERG) channel (Homo sapiens (Human), UniProt Q12809); experiment: hERG test (IKr, whole cell patch clamp in HEK293 cells); format: cell-based; conditions: 1 μmol/L of the compound, HEK293 cells expressing hERG
Excerpt: For the purpose of assessing risk of an electrocardiogram QT interval prolongation, effects on delayed rectifier K+ current (IKr), which plays an important role in the ventricular repolarization process of the compound of the present invention, was studied using HEK293 cells expressing human ether-a-go-go related gene (hERG) channel.
After a cell was retained at a membrane potential of −80 mV by whole cell patch clamp method using an automated patch clamp system (PatchXpress 7000A, Axon Instruments Inc.) and given leakage potential at −50 mV, IKr induced by depolarization pulse stimulation at +40 mV for 2 seconds and, further, repolarization pulse stimulation at −50 mV for 2 seconds was recorded. After the generated current was stabilized, extracellular solution (NaCl: 135 mmol/L, KCl: 5.4 mmol/L, […]: 0.3 mmol/L, CaCl2.2H2O: 1.8 mmol/L, MgCl2.6H2O: 1 mmol/L, glucose: 10 mmol/L, HEPES (4-(2-hydroxyethyl)-1-piperazineethanesulfonic acid): 10 mmol/L, pH=7.4) in which a compound of the present invention had been dissolved at an objective concentration was applied to the cell under the room temperature condition for 10 minutes. From the recording IKr, an absolute value of the tail peak current was measured based on the current value at the resting membrane potential using an analysis software (DataXpress ver. 2, Molecular Devices Corporation).

Sequence of human ether-a-go-go related gene (hERG) channel (Q12809 whole entry): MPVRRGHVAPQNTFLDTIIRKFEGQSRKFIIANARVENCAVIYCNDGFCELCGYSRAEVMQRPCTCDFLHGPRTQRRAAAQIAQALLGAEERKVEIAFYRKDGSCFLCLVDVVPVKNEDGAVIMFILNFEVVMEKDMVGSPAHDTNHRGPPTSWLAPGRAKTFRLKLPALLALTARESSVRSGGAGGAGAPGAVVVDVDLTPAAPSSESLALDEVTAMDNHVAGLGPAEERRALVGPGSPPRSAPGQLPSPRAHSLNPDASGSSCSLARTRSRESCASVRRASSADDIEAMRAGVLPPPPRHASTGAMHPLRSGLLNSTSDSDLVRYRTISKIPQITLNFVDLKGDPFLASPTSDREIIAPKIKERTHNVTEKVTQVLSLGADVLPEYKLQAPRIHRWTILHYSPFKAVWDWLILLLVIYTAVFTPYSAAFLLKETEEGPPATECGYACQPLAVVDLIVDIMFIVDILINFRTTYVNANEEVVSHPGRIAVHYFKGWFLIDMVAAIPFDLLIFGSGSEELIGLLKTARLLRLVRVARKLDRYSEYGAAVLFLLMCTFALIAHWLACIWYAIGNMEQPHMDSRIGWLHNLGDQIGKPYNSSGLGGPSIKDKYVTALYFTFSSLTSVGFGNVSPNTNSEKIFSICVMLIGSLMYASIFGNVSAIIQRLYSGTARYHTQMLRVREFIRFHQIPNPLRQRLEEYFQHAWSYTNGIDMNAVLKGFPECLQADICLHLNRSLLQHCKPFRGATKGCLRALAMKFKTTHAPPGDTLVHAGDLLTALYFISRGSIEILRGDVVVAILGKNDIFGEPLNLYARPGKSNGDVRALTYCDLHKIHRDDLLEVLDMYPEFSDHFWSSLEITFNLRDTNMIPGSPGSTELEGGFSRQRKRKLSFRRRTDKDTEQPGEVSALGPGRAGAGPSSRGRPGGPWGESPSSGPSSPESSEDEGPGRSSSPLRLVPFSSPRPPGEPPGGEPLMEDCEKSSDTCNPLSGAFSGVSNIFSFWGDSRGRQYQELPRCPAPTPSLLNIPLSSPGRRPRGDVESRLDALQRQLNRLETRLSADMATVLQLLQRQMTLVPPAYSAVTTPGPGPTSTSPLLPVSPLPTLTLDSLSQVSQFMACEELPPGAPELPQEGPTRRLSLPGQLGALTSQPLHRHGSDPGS

bioavailability [1] | SMILES | % inhibition of IKr tail peak current [2]
71% | CC(C)Oc1ccc(S(=O)(=O)N2C[C@@H](C)[C@@H](n3nc(CC(=O)O)c4ccc(F)cc43)C2)cc1 [Compound I-37] | 7.1%
82% | CCOc1ccc(S(=O)(=O)N2C[C@@H](C)[C@@H](n3nc(CC(=O)O)c4ccccc43)C2)cn1 [Compound I-96] | –
